Assay results published in US20240117303A1, “METHODS AND COMPOSITIONS FOR GENERATING HUMAN MIDBRAIN DOPAMINERGIC NEURONS FROM NEURAL PROGENITOR CELLS” (Trailhead Biosystems Inc., priority 2022, published 2024).

Tests used:
[1] = tested on: human pluripotent stem cells; assay: HD-DoE 13-factor experiment for stage 1 recipe, gene expression modeled after 3-day treatment; dynamic profile and factor criticality analysis; type: cell-based
Outline: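 Human pluripotent stem cells given 13-factor effector combinations (e.g. LDN193189, CHIR99021, PD0325901) for 3 days; expression of 53 preselected genes modeled, focusing on OTX2, DMBX1, FOXA2, LMX1A and GBX2. Factor criticality assessed by removing each of five finalized factors and comparing with all five present.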

[2] = tested on: stage 3 immature neurons; assay: HD-DoE 8-factor experiment for stage 4 recipe (FIG. 27, 28, 31); type: cell-based, human
Outline: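 Stage 3 cells treated 4 days with combinatorial matrices including CHIR99021, BDNF, GDNF, Rosiglitazone, GW7647, DBZ and heparin, then gene expression (NR4A2, PITX3, TH) measured. Dropout tests removed each of six finalized factors singly, comparing NR4A2 and PITX3 against the full set.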

[3] = tested on: stage 2 neural progenitors; assay: HD-DoE 12-factor model for stage 3 recipe (FIG. 19-23, 29); type: cell-based, human

Cc1c[nH]c(-c2cnc(NCCNc3ccc(C#N)cn3)nc2-c2ccc(Cl)cc2Cl)n1 [CHIR99021] was tested, and the “impact on expression of FOXA2” value ([1]; dynamic profile, 13 effectors) was “positive impact”, the “impact on expression of OTX2” value ([1]; dynamic profile, 13 effectors) was “positive impact” and the factor contribution ([1]; model optimized for maximum expression of FOXA2, positive effect) was 15.6. For the same molecule, the factor contribution ([1]; model optimized for maximum expression of OTX2, positive impact, 3-day treatment) was 13.5, the “expression level of LMX1A in absence of the factor” value ([1]; stage 1 recipe, other four factors present, 300 with all five factors) was “reduced” and the “expression level of FOXA2 in absence of the factor” value ([1]; stage 1 recipe, other four factors present, 600 with all five factors) was “reduced”. For the same molecule, the “expression level of DMBX1 in absence of the factor” value ([1]; stage 1 recipe, other four factors present, 3000 with all five factors) was “reduced”, the “expression level of OTX2 in absence of the factor” value ([1]; stage 1 recipe, other four factors present, 12000 with all five factors) was “reduced” and the “impact on expression level of PITX3” value ([2]; dynamic profile, 8 effectors) was “did not have a meaningful effect”. The factor contribution ([2]; model maximized for NR4A2, negative impact) was 20.7, the “impact on expression of KCNJ6” value ([3]; dynamic profile, 12 effectors) was “positive impact” and the factor contribution ([3]; model maximizing expression of CORIN, negative impact) was 10.9. The factor contribution ([3]; model optimized for maximum expression of KCNJ6, positive regulators) was 10.7, the “expression level of KCNJ6 in absence of the factor” value ([3]; stage 3 recipe, other factors present, 50 with all factors) was 50 and the “expression level of SOX6 in absence of the factor” value ([3]; stage 3 recipe, other factors present, 105 with all factors) was 125. The “expression level of MSX1 in absence of the factor” value ([3]; stage 3 recipe, other factors present, 140 with all factors) was 115 and the “expression level of CORIN in absence of the factor” value ([3]; stage 3 recipe, other factors present, 900 with all factors) was 1200.
